Experimental data reported in ChEMBL document CHEMBL2202954, “The effect of PLC-γ2 inhibitors on the growth of human tumour cells” (2012).

Assays:
Type in all cases: functional
K562 = experiment: Cytotoxicity against human K562 cells assessed as cellular growth at 10 uM by SRB assay
SK-MEL-5 = experiment: Cytotoxicity against human SK-MEL-5 cells assessed as cellular growth at 10 uM by SRB assay
UACC-62 = experiment: Cytotoxicity against human UACC62 cells assessed as cellular growth at 10 uM by SRB assay
RXF 393 = experiment: Cytotoxicity against human RXF393 cells assessed as cellular growth at 10 uM by SRB assay
IGROV-1 = experiment: Cytotoxicity against human IGROV1 cells assessed as cellular growth at 10 uM by SRB assay
MOLT-4 = experiment: Cytotoxicity against human MOLT4 cells assessed as cellular growth at 10 uM by SRB assay
COLO 205 = experiment: Cytotoxicity against human COLO205 cells assessed as cellular growth at 10 uM by SRB assay
TK-10 = experiment: Cytotoxicity against human TK10 cells assessed as cellular growth at 10 uM by SRB assay
HOP-62 = experiment: Cytotoxicity against human HOP62 cells assessed as cellular growth at 10 uM by SRB assay
SN12C = experiment: Cytotoxicity against human SN12C cells assessed as cellular growth at 10 uM by SRB assay
CAKI-1 = experiment: Cytotoxicity against human Caki1 cells assessed as cellular growth at 10 uM by SRB assay
MCF7 = experiment: Cytotoxicity against human MCF7 cells assessed as cellular growth at 10 uM by SRB assay
SF-539 = experiment: Cytotoxicity against human SF539 cells assessed as cellular growth at 10 uM by SRB assay
OVCAR-8 = experiment: Cytotoxicity against human OVCAR8 cells assessed as cellular growth at 10 uM by SRB assay
HCT-116 = experiment: Cytotoxicity against human HCT116 cells assessed as cellular growth at 10 uM by SRB assay
NCI-H460 = experiment: Cytotoxicity against human NCI-H460 cells assessed as cellular growth at 10 uM by SRB assay
SNB-19 = experiment: Cytotoxicity against human SNB19 cells assessed as cellular growth at 10 uM by SRB assay
UO-31 = experiment: Cytotoxicity against human UO31 cells assessed as cellular growth at 10 uM by SRB assay
SR = experiment: Cytotoxicity against human SR cells assessed as cellular growth at 10 uM by SRB assay
NCI-H23 = experiment: Cytotoxicity against human NCI-H23 cells assessed as cellular growth at 10 uM by SRB assay
MDA-MB-231 = experiment: Cytotoxicity against human MDA-MB-231 cells assessed as cellular growth at 10 uM by SRB assay
Hs-578T = experiment: Cytotoxicity against human Hs578T cells assessed as cellular growth at 10 uM by SRB assay
HCT-15 = experiment: Cytotoxicity against human HCT15 cells assessed as cellular growth at 10 uM by SRB assay
SK-OV-3 = experiment: Cytotoxicity against human SKOV3 cells assessed as cellular growth at 10 uM by SRB assay
LOX IMVI = experiment: Cytotoxicity against human LOXIMVI cells assessed as cellular growth at 10 uM by SRB assay
T47D = experiment: Cytotoxicity against human T47D cells assessed as cellular growth at 10 uM by SRB assay
[1] = Cytotoxicity against human NCI-ADR-RES cells assessed as cellular growth at 10 uM by SRB assay
SK-MEL-2 = experiment: Cytotoxicity against human SK-MEL-2 cells assessed as cellular growth at 10 uM by SRB assay
786-0 = experiment: Cytotoxicity against human 786-0 cells assessed as cellular growth at 10 uM by SRB assay
HL-60(TB) = experiment: Cytotoxicity against human HL-60(TB) cells assessed as cellular growth at 10 uM by SRB assay
OVCAR-3 = experiment: Cytotoxicity against human OVCAR3 cells assessed as cellular growth at 10 uM by SRB assay
EKVX = experiment: Cytotoxicity against human EKVX cells assessed as cellular growth at 10 uM by SRB assay
MDA-MB-468 = experiment: Cytotoxicity against human MDA-MB-468 cells assessed as cellular growth at 10 uM by SRB assay
NCI-H226 = experiment: Cytotoxicity against human NCI-H226 cells assessed as cellular growth at 10 uM by SRB assay
U-251 = experiment: Cytotoxicity against human U251 cells assessed as cellular growth at 10 uM by SRB assay
NCI-H522 = experiment: Cytotoxicity against human NCI-H522 cells assessed as cellular growth at 10 uM by SRB assay
SF-295 = experiment: Cytotoxicity against human SF295 cells assessed as cellular growth at 10 uM by SRB assay
NCI-H322M = experiment: Cytotoxicity against human NCI-H322M cells assessed as cellular growth at 10 uM by SRB assay
SF-268 = experiment: Cytotoxicity against human SF268 cells assessed as cellular growth at 10 uM by SRB assay
RPMI-8226 = experiment: Cytotoxicity against human RPMI8226 cells assessed as cellular growth at 10 uM by SRB assay
HT-29 = experiment: Cytotoxicity against human HT-29 cells assessed as cellular growth at 10 uM by SRB assay
SK-MEL-28 = experiment: Cytotoxicity against human SK-MEL-28 cells assessed as cellular growth at 10 uM by SRB assay
M14 = experiment: Cytotoxicity against human M14 cells assessed as cellular growth at 10 uM by SRB assay
KM12 = experiment: Cytotoxicity against human KM12 cells assessed as cellular growth at 10 uM by SRB assay
A498 = experiment: Cytotoxicity against human A498 cells assessed as cellular growth at 10 uM by SRB assay
OVCAR-5 = experiment: Cytotoxicity against human OVCAR5 cells assessed as cellular growth at 10 uM by SRB assay
SNB-75 = experiment: Cytotoxicity against human SNB75 cells assessed as cellular growth at 10 uM by SRB assay
ACHN = experiment: Cytotoxicity against human ACHN cells assessed as cellular growth at 10 uM by SRB assay
UACC-257 = experiment: Cytotoxicity against human UACC257 cells assessed as cellular growth at 10 uM by SRB assay
SW-620 = experiment: Cytotoxicity against human SW620 cells assessed as cellular growth at 10 uM by SRB assay
PC-3 = experiment: Cytotoxicity against human PC3 cells assessed as cellular growth at 10 uM by SRB assay
Malme-3M = experiment: Cytotoxicity against human MALME-3M cells assessed as cellular growth at 10 uM by SRB assay
BT-549 = experiment: Cytotoxicity against human BT549 cells assessed as cellular growth at 10 uM by SRB assay
CCRF-CEM = experiment: Cytotoxicity against human CCRF-CEM cells assessed as cellular growth at 10 uM by SRB assay
MDA-MB-435 = experiment: Cytotoxicity against human MDA-MB-435 cells assessed as cellular growth at 10 uM by SRB assay
HCC 2998 = experiment: Cytotoxicity against human HCC2998 cells assessed as cellular growth at 10 uM by SRB assay
DU-145 = experiment: Cytotoxicity against human DU145 cells assessed as cellular growth at 10 uM by SRB assay
A549 = experiment: Cytotoxicity against human A549 cells assessed as cellular growth at 10 uM by SRB assay

CC1(C)CC(=O)c2cc3c(N)c(C(=O)Nc4ccc(F)cc4)sc3nc2C1
Activity (K562): 106.71% | Activity (SK-MEL-5): 99.04% | Activity (UACC-62): 119.59% | Activity (RXF 393): 108.89% | Activity (IGROV-1): 119.45% | Activity (MOLT-4): 121.66% | Activity (COLO 205): 133.12% | Activity (TK-10): 105.13% | Activity (HOP-62): 114.29% | Activity (SN12C): 122.37% | Activity (CAKI-1): 98.34% | Activity (MCF7): 105.49% | Activity (SF-539): 96.07% | Activity (OVCAR-8): 108.67% | Activity (HCT-116): 114.92% | Activity (NCI-H460): 104.48% | Activity (SNB-19): 131.09% | Activity (UO-31): 119.15% | Activity (SR): 111.31% | Activity (NCI-H23): 102% | Activity (MDA-MB-231): 112.36% | Activity (Hs-578T): 111.09% | Activity (HCT-15): 100.72% | Activity (SK-OV-3): 109.93% | Activity (LOX IMVI): 102.36% | Activity (T47D): 111.5% | Activity [1]: 104.25% | Activity (SK-MEL-2): 122.76% | Activity (786-0): 104.75% | Activity (HL-60(TB)): 115.83% | Activity (OVCAR-3): 117.81% | Activity (EKVX): 100.32% | Activity (MDA-MB-468): 112.64% | Activity (NCI-H226): 102.68% | Activity (U-251): 101.59% | Activity (NCI-H522): 102.43% | Activity (SF-295): 88.4% | Activity (NCI-H322M): 110.83% | Activity (SF-268): 124.1% | Activity (RPMI-8226): 103.3% | Activity (HT-29): 110.56% | Activity (SK-MEL-28): 113.65% | Activity (M14): 121.48% | Activity (KM12): 115.29% | Activity (A498): 87.2% | Activity (OVCAR-5): 92.85% | Activity (SNB-75): 114.82% | Activity (ACHN): 112.82% | Activity (UACC-257): 107.39% | Activity (SW-620): 106.24% | Activity (PC-3): 110.47% | Activity (Malme-3M): 116.52% | Activity (BT-549): 111.85% | Activity (CCRF-CEM): 107.91% | Activity (MDA-MB-435): 103.15% | Activity (HCC 2998): 105.43% | Activity (DU-145): 122.42% | Activity (A549): 105.88%

CC1(C)CC(=O)c2cc3c(N)c(C(=O)Nc4ccc(Cl)cc4)sc3nc2C1
Activity (K562): 107.2% | Activity (SK-MEL-5): 96.03% | Activity (UACC-62): 105.25% | Activity (RXF 393): 116.26% | Activity (IGROV-1): 110.85% | Activity (MOLT-4): 104% | Activity (COLO 205): 116.82% | Activity (TK-10): 95.21% | Activity (HOP-62): 108.35% | Activity (SN12C): 109.62% | Activity (CAKI-1): 134.14% | Activity (MCF7): 102.6% | Activity (SF-539): 114.18% | Activity (OVCAR-8): 110.67% | Activity (HCT-116): 108.43% | Activity (NCI-H460): 108.61% | Activity (SNB-19): 113.58% | Activity (UO-31): 108.83% | Activity (SR): 112.84% | Activity (NCI-H23): 104.98% | Activity (MDA-MB-231): 114.95% | Activity (Hs-578T): 108.83% | Activity (HCT-15): 107.55% | Activity (SK-OV-3): 106.15% | Activity (LOX IMVI): 108.76% | Activity (T47D): 96.17% | Activity [1]: 113.97% | Activity (SK-MEL-2): 100.96% | Activity (786-0): 98.68% | Activity (HL-60(TB)): 107.32% | Activity (OVCAR-3): 111.21% | Activity (EKVX): 93.17% | Activity (MDA-MB-468): 109.5% | Activity (NCI-H226): 108.39% | Activity (U-251): 103.14% | Activity (NCI-H522): 95.83% | Activity (SF-295): 100.12% | Activity (NCI-H322M): 113.55% | Activity (SF-268): 124.88% | Activity (RPMI-8226): 102.77% | Activity (HT-29): 96.43% | Activity (SK-MEL-28): 118.07% | Activity (M14): 107.38% | Activity (KM12): 116.67% | Activity (A498): 75.63% | Activity (SNB-75): 113.88% | Activity (ACHN): 116.88% | Activity (UACC-257): 91.35% | Activity (SW-620): 108.54% | Activity (PC-3): 104.63% | Activity (Malme-3M): 119.36% | Activity (BT-549): 124.84% | Activity (CCRF-CEM): 97.21% | Activity (MDA-MB-435): 108.85% | Activity (HCC 2998): 116.11% | Activity (DU-145): 103.07% | Activity (A549): 97.61%
